In brackets after ≈: the same amount, converted by molar mass. *1 amine or outer side, *2 acyl side, *3 side chain or, on linkers, in order; H or OH if unused. Where a SMILES comes first, the peptide text is derived from it. [ ]: non-standard residue; d: D form. X1 = O=C1CC2C(=O)N(CCN[*:1])C(=O)C2C(c2ccc(C(=O)[*:2])cc2)C1; X2 = O=C1CC2C(=O)N(CCN[*:1])C(=O)C2C(C(=O)[*:2])C1; Cha = N[C@@H](CC1CCCCC1)C(=O)O
Tests used:
[1] = Inhibition of Leishmania mexicana CPB2.8
[2] = Binding affinity to Leishmania mexicana CPB2.8 assessed as inhibition constant
Leishmania donovani = assay: Antileishmanial activity against Leishmania donovani MHOM/IN/1983/AG83 axenic amastigotes assessed as inhibition of growth at 10 uM relative to control; type: functional; parameters: scale not given: the % may be the effect or the level left
[3] = Inhibition of Leishmania donovani cysteine protease
Leishmania major = assay: Antileishmanial activity against Leishmania major promastigotes MHOM/IL/81/FE/BN; type: functional, organism-based
Leishmania amazonensis = assay: Antileishmanial activity against Leishmania amazonensis promastigotes assessed as inhibition of parasite growth; type: functional, organism-based
Leishmania infantum = assay: Antileishmanial activity against Leishmania infantum promastigote assessed as reduction in parasite growth after 72 hrs by MTT assay relative to control; type: functional; parameters: scale not given: the % may be the effect or the level left

Row | Structure (SMILES) | IC50 [1] [µM] | also measured
1 | O=c1c(O)c(-c2ccc3c(c2)OCO3)oc2ccccc12 | 5.23 | Ki [2]: 7.06 µM
2 | CN(C)c1ccc(/C=C/C(=O)c2cc(Cl)ccc2O)cc1 | 3.97 | Ki [2]: 5.47 µM
3 | O=C1NC(=O)/C(=C/c2ccc([N+](=O)[O-])cc2)S1 | 0.98 | Activity (Leishmania donovani): 93.98%
4 | CCOc1cc(/C=C2\SC(=O)NC2=O)ccc1O | 1.42 | Activity (Leishmania donovani): 100%
5 | Oc1cccc(/C=N\c2cccc3c(/N=C/c4cccc(O)c4O)cccc23)c1O |  | IC50 [3]: 113 µM
6 | O=C(O)c1ccccc1N/N=C/c1ccc(/C=N/Nc2ccccc2C(=O)O)cc1 |  | IC50 [3]: 72 µM
7 | COC(=O)c1ccc(NC(=O)CSc2nc3ccc(Cl)cc3n2Cc2cc(C)cc(C)c2)c(Cl)c1 | 2.06 | Ki [2]: 0.69 µM
8 | COC(=O)c1ccc(NC(=O)CSc2nc3ccc(Cl)cc3n2S(=O)(=O)c2cc(C)cc(C)c2)c(Cl)c1 | 0.45 | Ki [2]: 0.15 µM
9 | O=C(N[C@H](/C=C/S(=O)(=O)c1ccccc1)CCc1ccccc1)[C@H](Cc1ccccc1)NC(=O)N1CCOCC1 | 0.027 | 
10 | CC(C)C[C@@H](NC(=O)OC(C)(C)C)C(=O)N1CCC[C@@H]1C(=O)N1[C@H](C(=O)OCc2ccccc2)[C@H]1C(=O)OCc1ccccc1 |  | IC50 (Leishmania major): 35.4 µM
11 | CC(C)C[C@H](NC(=O)OC(C)(C)C)C(=O)N1CCC[C@@H]1C(=O)N1[C@H](C(=O)OCc2ccccc2)[C@H]1C(=O)OCc1ccccc1 |  | IC50 (Leishmania major): 39.6 µM
12 | COc1ccc(-c2oc3ccccc3c(=O)c2O)cc1 | 4.72 | Ki [2]: 7.71 µM
13 | COC(=O)c1ccc(NC(=O)CSc2nc3ccccc3n2S(=O)(=O)c2cc(C)cc(C)c2)cc1 | 0.54 | Ki [2]: 0.18 µM
14 | O=C(CN1C(=O)/C(=N\NC(=O)c2ccncc2)c2ccccc21)Nc1ccccc1 |  | IC50 [3]: 62.6 µM
15 | CC(C)C[C@H](NC(=O)OC(C)(C)C)C(=O)N1CCC[C@@H]1C(=O)N1[C@@H](C(=O)OCc2ccccc2)[C@@H]1C(=O)OCc1ccccc1 | 3.8 | 
16 | O=C1c2c(O)cc(O)cc2O[C@@H](c2ccc(O)cc2)[C@@H]1c1c(O)cc(O)c2c(=O)cc(-c3ccc(O)c(O)c3)oc12 | 5.2 | IC50 (Leishmania amazonensis): 95 mg/L (≈ 171 µM)
17 | CC(C)(C)OC(=O)N[C@@H](Cc1cccc(Cl)c1)C(=O)NCC#N |  | Activity (Leishmania infantum): 35%
18 | O=C1CC(c2ccc(O)c(-c3c(O)cc4c(c3O)C(=O)CC(c3ccc(O)cc3)O4)c2)Oc2cc(O)cc(O)c21 (stereo unspecified) | 2.2 | 
19 | Cc1cc(C)cc(S(=O)(=O)n2c(SCC(=O)Nc3ccccc3)nc3ccccc32)c1 | 0.68 | Ki [2]: 0.23 µM

Row | Structure (SMILES) | IC50 [1] [µM] | also measured
20 | Oc1cc(O)cc(/C=N/c2ccc(/N=C/c3ccc(O)cc3O)c(Cl)c2)c1 |  | IC50 [3]: 65.3 µM
21 | C[C@@H]1CCC2(C(=O)O)CC[C@]3(C)C(=CCC4[C@@]5(C)CCC(=O)C(C)(C)C5CC[C@]43C)C2[C@H]1C (stereo partly specified) | 3.78 | Ki [2]: 1.26 µM
22 | O=C(N[C@@H](Cc1ccccc1)C(=O)c1noc(-c2ccccc2)n1)[C@H](Cc1ccccc1)NC(=O)N1CCOCC1 | 0.05 | 
23 | CN1CCN(C(=O)N[C@@H](Cc2ccccc2)C(=O)N[C@@H](CCc2ccccc2)C(=O)c2cc(-c3ccccc3)on2)CC1 | 0.23 | 
24 | NC(=O)N/N=c1\oc2ccccc2cc1-c1nc2ccccc2[nH]1 | 0.01 | 
25 | NC(=S)N/N=C/c1c(-c2ccccc2)[nH]c2ccccc12 | 0.06 | 
26 | O=C(N[C@@H](Cc1ccccc1)C(=O)c1cc(-c2ccccc2)on1)[C@H](Cc1ccccc1)NC(=O)N1CCOCC1 | 0.1 | 
27 | COc1ccc(-c2ccc(/C=N/NC(N)=S)o2)cc1 | 0.07 | 
28 | O=C1CC(c2ccc(O)cc2)Oc2cc(O)c(-c3c(O)cc(O)c4c(=O)cc(-c5ccc(O)cc5)oc34)c(O)c21 (stereo unspecified) | 0.43 | 
29 | CC(C)=CCOc1ccc(C(=O)c2ccc(O)cc2)c(O)c1 | 2.9 | Ki [2]: 4.3 µM
30 | Cc1ccc(C(=O)[C@@]23C(=O)OC(=O)[C@]2(C)N(C)[C@]2(c4ccccc4)Sc4ccccc4[C@H]32)cc1 | 3.7 | Ki [2]: 1.36 µM
31 | COc1ncccc1Nc1nc(C#N)nc(NC2CCCCC2)n1 | 1.1 | 
32 | COc1ccc2nc3cc(Cl)ccc3c(-n3c(=S)[nH][nH]c3=S)c2c1 | 1.14 | IC50 (Leishmania amazonensis): 6.57 mg/L (≈ 17.5 µM)
33 | O=C(N[C@@H](CCc1ccccc1)C(=O)c1cc(-c2ccccc2)on1)[C@H](Cc1ccccc1)NC(=O)N1CCOCC1 | 0.19 | 
34 | CC(C)[C@H](NC(=O)c1ccc(C2CC(=O)CC3C(=O)N(CCNC(=O)[C@H](CC(=O)O)NC(=O)[C@@H](N)Cc4c[nH]c5ccccc45)C(=O)C32)cc1)C(=O)N[C@@H](CO)C(=O)N[C@@H](CCCCN)C(N)=O (stereo partly specified) (H-WD[X1]VSK-NH2) | 1.7 | 
35 | CC(C)C[C@H](NC(=O)C1CC(=O)CC2C(=O)N(CCNC(=O)[C@H](Cc3ccccc3)NC(=O)[C@@H](N)Cc3c[nH]c4ccccc34)C(=O)C12)C(=O)N[C@@H](Cc1ccc(O)cc1)C(=O)N[C@@H](Cc1ccc(O)cc1)C(N)=O (stereo partly specified) (H-WF[X2]LYY-NH2) | 0.5 | 
36 | CC(C)[C@H](NC(=O)c1ccc(C2CC(=O)CC3C(=O)N(CCNC(=O)[C@H](Cc4c[nH]c5ccccc45)NC(=O)[C@@H](N)CC4CCCCC4)C(=O)C32)cc1)C(=O)N[C@H](C(=O)N[C@@H](Cc1ccccc1)C(N)=O)C(C)C (stereo partly specified) (H-[Cha]W[X1]VVF-NH2) | 0.45 | 
37 | CC(C)(F)C[C@H](N[C@@H](c1ccc(-c2ccc(S(C)(=O)=O)cc2)cc1)C(F)(F)F)C(=O)NC1(C#N)CC1 [ODANACATIB] |  | Activity (Leishmania infantum): 90%

— ChEMBL document CHEMBL6134829, “Targeting cysteine protease B to discover antileishmanial drugs: Directions and advances” (Eur J Med Chem, 2025)
